Results taken from patent US20140296147A1, “METHODS OF TREATING OR PREVENTING BLOOD LOSS DURING SURGERY USING THE SERINE PROTEASE INHIBITOR MDCO-2010” (THE MEDICINES COMPANY, priority 2011, published 2014).
Like-named read-outs stand apart in the source and are kept apart here. Marks after values point to notes of the source that are not given here.

What was measured:
plasmin = plasmin (Homo sapiens, UniProt P00747); settings: active-site directed, reversible, no cofactor; cited from earlier work
plasmin, sequence (P00747 581-810 limits assumed): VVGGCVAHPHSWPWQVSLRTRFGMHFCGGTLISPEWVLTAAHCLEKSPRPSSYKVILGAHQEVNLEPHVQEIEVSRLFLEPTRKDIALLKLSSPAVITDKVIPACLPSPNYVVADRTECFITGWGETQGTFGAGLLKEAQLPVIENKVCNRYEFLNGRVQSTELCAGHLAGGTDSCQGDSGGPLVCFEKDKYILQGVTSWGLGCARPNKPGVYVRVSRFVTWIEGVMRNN
plasmin, sequence (P00747 97-580 partner limits assumed): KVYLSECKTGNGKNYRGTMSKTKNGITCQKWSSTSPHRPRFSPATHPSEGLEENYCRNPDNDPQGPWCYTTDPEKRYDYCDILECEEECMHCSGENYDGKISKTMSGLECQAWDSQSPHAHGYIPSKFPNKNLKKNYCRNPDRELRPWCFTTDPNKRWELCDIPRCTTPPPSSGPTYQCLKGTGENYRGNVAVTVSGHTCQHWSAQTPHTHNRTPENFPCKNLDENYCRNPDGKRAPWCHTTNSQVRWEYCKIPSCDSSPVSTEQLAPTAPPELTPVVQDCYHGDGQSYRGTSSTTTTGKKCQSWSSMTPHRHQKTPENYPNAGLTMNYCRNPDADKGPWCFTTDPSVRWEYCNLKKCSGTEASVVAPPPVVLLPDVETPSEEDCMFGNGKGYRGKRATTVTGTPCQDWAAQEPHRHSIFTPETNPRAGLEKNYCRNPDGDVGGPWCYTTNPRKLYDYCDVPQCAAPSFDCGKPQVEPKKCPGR

[1] = system: patients undergoing elective, primary CABG (coronary artery bypass graft) surgery; assay: Phase IIa placebo-controlled dose-escalation study: postoperative blood loss and transfusions; format: in vivo, human
Method: (§1) A Phase IIa, single-center, double-blind, placebo-controlled dose-escalation study was performed to investigate MDCO-2010 in patients undergoing elective, primary CABG (coronary artery bypass graft) surgery.
After independent ethics committee approval and written informed consent, thirty two patients underwent CABG surgery (patient characteristics shown in Table 1) through midline sternotomy using minimized extracorporeal circulation (MECC, priming volume of 600 mL).
Initial heparin dosing (400 units/kg) and heparin maintenance was guided by the Hepcon HMS, with a kaolin ACT target of 480 seconds. Immediately after heparin bolus, study drug administration was initiated with a loading (bolus) dose followed by a continuous infusion of the maintenance dose via a central venous catheter until sternal closure. Patients were randomized in a 3:1 ratio to receive either one of five MDCO-2010 doses (continuous infusion of 12.5, 25, 62.5, 109 or 219 μg/kg/h maintenance dose; 24 patients) or saline as placebo (8 patients). […]
loading dose 5 μg/kg, maintenance dose 12.5 μg/kg/h; pump prime 0.02 mg; 3 patients loading dose 11 μg/kg, maintenance dose 25 μg/kg/h; pump prime 0.04 mg; 3 patients loading dose 27 μg/kg, maintenance dose 62.5 μg/kg/h; pump prime 0.09 mg; 6 patients loading dose 47 μg/kg, maintenance dose 109 μg/kg/h; pump prime 0.18 mg; 6 patients loading dose 94 μg/kg, maintenance dose 219 μg/kg/h; pump prime 0.35 mg; 6 patients The loading dose was administered over a five minute period of time in a 10 mL infusion. The maintenance dose was administered as a continuous infusion with a constant flow rate of 23 mL/h for the duration of procedure. MDCO-2010 was also added to the pump prime fluid to the targeted plasma concentration. The pump prime was supplied as a 10 mL load.

plasma kallikrein = plasma kallikrein (Homo sapiens, UniProt P03952); settings: active-site directed, reversible, no cofactor; cited from earlier work
plasma kallikrein, sequence (P03952 391-638 limits assumed): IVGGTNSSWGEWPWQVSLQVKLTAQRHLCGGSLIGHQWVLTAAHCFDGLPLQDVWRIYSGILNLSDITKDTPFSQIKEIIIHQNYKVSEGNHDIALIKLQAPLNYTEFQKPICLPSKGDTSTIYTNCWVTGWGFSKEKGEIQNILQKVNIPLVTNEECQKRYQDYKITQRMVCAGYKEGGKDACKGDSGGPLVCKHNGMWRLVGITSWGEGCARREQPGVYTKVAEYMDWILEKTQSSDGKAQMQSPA
plasma kallikrein, sequence (P03952 20-390 partner limits assumed): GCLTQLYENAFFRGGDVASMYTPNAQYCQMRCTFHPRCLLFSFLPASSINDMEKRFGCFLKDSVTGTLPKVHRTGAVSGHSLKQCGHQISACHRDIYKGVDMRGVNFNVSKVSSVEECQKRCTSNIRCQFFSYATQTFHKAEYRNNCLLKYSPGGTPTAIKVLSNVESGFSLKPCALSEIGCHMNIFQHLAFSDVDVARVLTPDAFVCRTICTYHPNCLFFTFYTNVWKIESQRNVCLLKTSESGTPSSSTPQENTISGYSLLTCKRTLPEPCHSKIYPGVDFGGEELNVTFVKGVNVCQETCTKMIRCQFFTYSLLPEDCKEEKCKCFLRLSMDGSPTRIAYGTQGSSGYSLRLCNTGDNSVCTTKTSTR

activated Protein C = activated Protein C (Homo sapiens, UniProt P04070); settings: cited from earlier work
activated Protein C, sequence (P04070 212-461 limits assumed): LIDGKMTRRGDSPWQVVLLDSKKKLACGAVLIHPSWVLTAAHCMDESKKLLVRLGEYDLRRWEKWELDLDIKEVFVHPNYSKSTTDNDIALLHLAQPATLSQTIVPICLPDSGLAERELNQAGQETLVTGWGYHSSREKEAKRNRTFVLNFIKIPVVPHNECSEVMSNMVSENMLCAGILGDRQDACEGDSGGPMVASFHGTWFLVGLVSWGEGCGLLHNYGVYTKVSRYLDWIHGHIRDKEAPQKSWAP
activated Protein C, sequence (P04070 43-197 partner limits assumed): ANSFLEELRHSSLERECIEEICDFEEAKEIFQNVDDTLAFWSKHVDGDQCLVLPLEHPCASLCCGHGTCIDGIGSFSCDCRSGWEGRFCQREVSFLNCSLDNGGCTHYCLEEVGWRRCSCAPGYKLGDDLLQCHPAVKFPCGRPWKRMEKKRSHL

[2] = system: patients undergoing elective, primary CABG (coronary artery bypass graft) surgery; assay: Safety markers and safety profile in CABG patients; format: in vivo, human
Method: as §1
(§2) Initial heparin dosing (400 units/kg) and heparin maintenance was guided by the Hepcon HMS, with a kaolin ACT target of 480 seconds. Immediately after heparin bolus, study drug administration was initiated with a loading (bolus) dose followed by a continuous infusion of the maintenance dose via a central venous catheter until sternal closure. Patients were randomized in a 3:1 ratio to receive either one of five MDCO-2010 doses (continuous infusion of 12.5, 25, 62.5, 109 or 219 μg/kg/h maintenance dose; 24 patients) or saline as placebo (8 patients).

coagulation Factor Xa = coagulation Factor Xa (Homo sapiens, UniProt P00742); settings: cited from earlier work
coagulation Factor Xa, sequence (P00742 235-488 limits assumed): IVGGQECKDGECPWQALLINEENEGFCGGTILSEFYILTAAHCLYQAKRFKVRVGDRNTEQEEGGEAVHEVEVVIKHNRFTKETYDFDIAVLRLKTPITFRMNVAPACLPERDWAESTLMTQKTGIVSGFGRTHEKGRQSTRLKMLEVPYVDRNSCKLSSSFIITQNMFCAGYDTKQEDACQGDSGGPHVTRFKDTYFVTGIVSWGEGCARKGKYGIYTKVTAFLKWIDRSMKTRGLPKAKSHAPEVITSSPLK
coagulation Factor Xa, sequence (P00742 41-179 partner limits assumed): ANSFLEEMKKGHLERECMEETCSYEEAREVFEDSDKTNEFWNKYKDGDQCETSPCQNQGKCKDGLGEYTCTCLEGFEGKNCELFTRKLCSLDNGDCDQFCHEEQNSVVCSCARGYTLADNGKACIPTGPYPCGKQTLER

coagulation Factor XIa = coagulation Factor XIa (Homo sapiens, UniProt P03951); settings: cited from earlier work
coagulation Factor XIa, sequence (P03951 388-625 limits assumed): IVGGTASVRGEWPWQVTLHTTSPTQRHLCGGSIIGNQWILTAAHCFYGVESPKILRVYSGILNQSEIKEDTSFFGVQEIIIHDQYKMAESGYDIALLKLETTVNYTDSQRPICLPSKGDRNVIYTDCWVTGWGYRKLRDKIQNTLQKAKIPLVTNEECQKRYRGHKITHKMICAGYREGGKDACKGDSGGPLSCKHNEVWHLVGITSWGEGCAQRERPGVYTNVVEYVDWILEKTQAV
coagulation Factor XIa, sequence (P03951 19-387 partner limits assumed): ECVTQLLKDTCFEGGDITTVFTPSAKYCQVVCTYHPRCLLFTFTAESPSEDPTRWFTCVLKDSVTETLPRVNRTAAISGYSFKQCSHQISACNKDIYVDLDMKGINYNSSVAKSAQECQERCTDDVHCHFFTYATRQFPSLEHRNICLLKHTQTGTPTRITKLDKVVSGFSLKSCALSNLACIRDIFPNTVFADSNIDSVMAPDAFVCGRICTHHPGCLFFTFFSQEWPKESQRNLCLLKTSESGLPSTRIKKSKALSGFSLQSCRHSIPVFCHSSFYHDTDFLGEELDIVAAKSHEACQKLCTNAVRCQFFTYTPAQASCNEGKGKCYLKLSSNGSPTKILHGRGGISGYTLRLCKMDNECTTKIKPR

tPA-induced fibrinolysis = assay: Antifibrinolytic effect: D-dimer generation and tPA-induced lysis in CABG patients; format: in vivo, human; settings: five escalating doses, FIG. 2
Method: as §1, §2

[3] = Plasma pharmacokinetics of MDCO-2010 (LC/MS/MS, non-compartmental analysis) during CABG surgery; format: in vivo, human; settings: for half-life / clearance / Vd / AUC(0-inf) / AUC(0-t) / Cmax: human, plasma
Method: Nominal blood sampling times for PK analysis were pre-dose (T1, pre-heparin) and at 10 min (pre-CBP), 15 min, 30 min, 60 min (or just before cessation of CPB), at the end of infusion (sternal closure), 15 min, 30 min, and at 4 hours post-end of infusion. Actual times were calculated for each patient and used for PK analysis.
MDCO-2010 was measured in plasma by liquid chromatography with tandem mass spectrometry (LC/MS/MS).
Plasma concentrations versus time data were analyzed by non-compartmental analysis using the program WinNonlin Professional Version 5.3 (Pharsight, Mountain View, Calif., USA). Actual sampling times were used for the evaluation.
The following parameters were determined: • AUC0-tlast=area under the MDCO-2010 concentration versus time curve from dosing time to the last time point with a value above the lower limit of quantitation (LLOQ), calculated by linear/log trapezoidal method which uses the linear trapezoidal rule up to Cmax and log trapezoidal rule for the remainder of the curve • AUC0-inf=area under the concentration-time curve from […]; calculated as AUC0-tlast+AUCexpol, where AUCexpol=Clast/λ • Css=steady-state plasma concentration calculated by taking the average of the concentrations in T4 to T7 • Cmax=maximum concentration, directly taken from measured values • t1/2=apparent terminal elimination half-life determined by log-linear regression • CL=total body clearance • Vss=volume of distribution at steady state
Descriptive statistics (number of subjects, arithmetic means, standard deviation (SD), geometric means, medians, minimum and maximum values) were determined for all PK variables, separately for each treatment. Values below the LLOQ of the assay were taken as zero for descriptive statistics of concentrations. For AUC calculations, values below LLOQ were taken as zero if no quantifiable concentrations were found before the value, as missing if quantifiable concentrations were found before and after the value, and also as missing if quantifiable concentrations were found before, but not after the value. Mean (±SD) concentration time plots were provided for each treatment group using linear and semi-logarithmic scale.
Dose proportionality was assessed by the power model using SAS Version 9 (SAS Institute Inc., Cary, N.C.).
The mean values for PK parameters per dose group (mean (±SD) pharmacokinetic variables of MDCO-2010 administered via IV infusion during CABG surgery based on non-compartmental analysis) are summarized in Table 3.

[4] = system: intrinsic and extrinsic pathways; assay: Anticoagulant effect: ACT, aPTT and ROTEM coagulation times in CABG patients; format: in vivo, human; settings: five escalating doses, FIG. 3
Method: as §1, §2

[5] = Cohort 1 (N = 3): loading dose 5 μg/kg, maintenance dose 12.5 μg/kg/h
[6] = Cohort 2 (N = 3): loading dose 11 μg/kg, maintenance dose 25 μg/kg/h
[7] = Cohort 3 (N = 6): loading dose 27 μg/kg, maintenance dose 62.5 μg/kg/h
[8] = Cohort 4 (N = 6): loading dose 47 μg/kg, maintenance dose 109 μg/kg/h
[9] = Cohort 5 (N = 6): loading dose 94 μg/kg, maintenance dose 219 μg/kg/h, 1 patient received additional heparin without protamine reversal
[10] = Cohort 1, mean dose 1.88 mg, IV infusion during CABG surgery, mean
[11] = Cohort 2, mean dose 4.99 mg, IV infusion during CABG surgery, mean
[12] = Cohort 3, mean dose 12.33 mg, IV infusion during CABG surgery, mean
[13] = Cohort 4, mean dose 19.57 mg, IV infusion during CABG surgery, mean
[14] = Cohort 5, mean dose 38.01 mg, IV infusion during CABG surgery, mean

Css [3, 10]: 50.06 ng/mL
Css [3, 11]: 96.31 ng/mL
Css [3, 12]: 268.21 ng/mL
Css [3, 13]: 478.86 ng/mL
Css [3, 14]: 1009.17 ng/mL
plasma levels during the infusion ([3]; continuous infusion, FIG. 1): stable
mean MDCO-2010 plasma concentrations versus dose ([3]; five escalating doses, CABG patients): linear dose-proportional increase
half-life ([3]; intravenous, following an approximately 100 minute infusion period, all cohorts, read-out: mean value for the elimination half-life): ~1.38 h
half-life ([3]; intravenous, after end of infusion, CABG patients, read-out: terminal half-life (converted)): 1 h
half-life ([3]; intravenous, range over cohorts, read-out: elimination half-life, range): 1.02 to 1.7 h
clearance ([3]; intravenous, 1.88 mg total dose, read-out: Total body clearance): 220 ± 78 mL/min
clearance ([3]; intravenous, 38.01 mg total dose, read-out: Total body clearance): 153 ± 19 mL/min
Vd ([3]; intravenous, all dose levels, read-out: Volume of distribution (Vss), range): 12 to 17 L
half-life ([3]; iv, 1.88 mg, Cohort 1, mean dose 1.88 mg, IV infusion during CABG surgery, mean, read-out: t1/2): 1.02 h
half-life ([3]; iv, 4.99 mg, Cohort 2, mean dose 4.99 mg, IV infusion during CABG surgery, mean, read-out: t1/2): 1.21 h
half-life ([3]; iv, 12.33 mg, Cohort 3, mean dose 12.33 mg, IV infusion during CABG surgery, mean, read-out: t1/2): 1.26 h
half-life ([3]; iv, 19.57 mg, Cohort 4, mean dose 19.57 mg, IV infusion during CABG surgery, mean, read-out: t1/2): 1.74 h
half-life ([3]; iv, 38.01 mg, Cohort 5, mean dose 38.01 mg, IV infusion during CABG surgery, mean, read-out: t1/2): 1.72 h
AUC(0-inf) [3, 10]: 152 ng·h/mL
AUC(0-t) [3, 10]: 125 ng·h/mL
Cmax [3, 10]: 54.8 ng/mL
clearance ([3]; Cohort 1, mean dose 1.88 mg, IV infusion during CABG surgery, mean, read-out: Cl): 220 mL/min
Vd ([3]; Cohort 1, mean dose 1.88 mg, IV infusion during CABG surgery, mean, read-out: Vss): 12.7 L
AUC(0-inf) [3, 11]: 334 ng·h/mL
AUC(0-t) [3, 11]: 278 ng·h/mL
Cmax [3, 11]: 114 ng/mL
clearance ([3]; Cohort 2, mean dose 4.99 mg, IV infusion during CABG surgery, mean, read-out: Cl): 263 mL/min
Vd ([3]; Cohort 2, mean dose 4.99 mg, IV infusion during CABG surgery, mean, read-out: Vss): 16.1 L
AUC(0-inf) [3, 12]: 991 ng·h/mL
AUC(0-t) [3, 12]: 905 ng·h/mL
Cmax [3, 12]: 288 ng/mL
clearance ([3]; Cohort 3, mean dose 12.33 mg, IV infusion during CABG surgery, mean, read-out: Cl): 199 mL/min
Vd ([3]; Cohort 3, mean dose 12.33 mg, IV infusion during CABG surgery, mean, read-out: Vss): 12.3 L
AUC(0-inf) [3, 13]: 1880 ng·h/mL
AUC(0-t) [3, 13]: 1640 ng·h/mL
Cmax [3, 13]: 564 ng/mL
clearance ([3]; Cohort 4, mean dose 19.57 mg, IV infusion during CABG surgery, mean, read-out: Cl): 179 mL/min
Vd ([3]; Cohort 4, mean dose 19.57 mg, IV infusion during CABG surgery, mean, read-out: Vss): 17.4 L
AUC(0-inf) [3, 14]: 4060 ng·h/mL
AUC(0-t) [3, 14]: 3620 ng·h/mL
Cmax [3, 14]: 1150 ng/mL
clearance ([3]; Cohort 5, mean dose 38.01 mg, IV infusion during CABG surgery, mean, read-out: Cl): 153 mL/min
Vd ([3]; Cohort 5, mean dose 38.01 mg, IV infusion during CABG surgery, mean, read-out: Vss): 15.1 L
plasma levels abated ([3]; within 4 hours of the end of infusion): 85%
SMILES: N=C(N)c1ccc(CNC(=O)[C@H](Cc2cccc(CN)c2)NC(=O)[C@@H](CCCc2ccccc2)NS(=O)(=O)Cc2cccc(C(=O)O)c2)cc1 [MDCO-2010, 3-({1-[2-(3-Aminomethyl-phenyl)-1-(4-carbamimidoyl-benzylcarbamoyl)-ethylcarbamoyl]-4-phenyl-butylsulfamoyl}-methyl)-benzoic acid]
inhibition of plasmin (plasmin): potent inhibitor
12 hour postoperative chest tube drainage, median ± SD [1, 5]: 450 ± 172 mL
Average number of transfusions per patient [1, 5]: 0
Patients receiving transfusions [1, 5]: 0/3
12 hour postoperative chest tube drainage, median ± SD [1, 6]: 595 ± 125 mL
Average number of transfusions per patient [1, 6]: 0
Patients receiving transfusions [1, 6]: 0/3
Average number of transfusions per patient [1, 7]: 0.33
Patients receiving transfusions [1, 7]: 1/6
Average number of transfusions per patient [1, 8]: 0.17
Patients receiving transfusions [1, 8]: 1/6
Average number of transfusions per patient [1, 9]: 0.67†
Patients receiving transfusions [1, 9]: 2/6†
Chest tube drainage, incidence and volume of RBC transfusions vs. placebo ([1]; MDCO-2010 vs. placebo): significantly lower
inhibition of plasma kallikrein (plasma kallikrein): potent inhibitor
inhibition of activated Protein C (activated Protein C): inhibits
troponin T, CK-MB, prothrombin fragment F1+2, interleukins IL-6 and IL-10, ALAT, ASAT, serum creatinine vs. placebo ([2]; patients treated with MDCO-2010 vs. placebo, results not shown): No differences
safety profile of escalating doses ([2]; primary CABG surgery, first-in-patient study): acceptable safety profile
inhibition of coagulation Factor Xa (coagulation Factor Xa): inhibits
inhibition of coagulation Factor XIa (coagulation Factor XIa): inhibits
antifibrinolytic effect (suppression of D-dimer generation and inhibition of tPA-induced lysis) (tPA-induced fibrinolysis): dose-dependent antifibrinolytic effect
ACT, aPTT and rotation thrombelastometry (ROTEM) coagulation times [4]: dose-related prolongation
